Laboratory results: patent US11371055B2, “Herbicide resistance genes” (CORTEVA AGRISCIENCE LLC, priority 2005, dated 2022)

Legend:
AAD-12 (v2) [1] = biological target: T1, AAD-12 (v2) (Delftia acidovorans, UniProt P83309); assay: Colorimetric phenol detection assay of AAD-12 activity; assay type: biochemical; settings: for activity of AAD-12 (v2) on substrate (absorbance at 510 nm, FIG. 3): 4.4 μg AAD-12 (v2), 5 minutes
T1 construct: made in house; host or cells: Pseudomonas fluorescens strain MB324 (construct pDAB739)
T1 sequence (P83309 whole entry, looked up, natural form): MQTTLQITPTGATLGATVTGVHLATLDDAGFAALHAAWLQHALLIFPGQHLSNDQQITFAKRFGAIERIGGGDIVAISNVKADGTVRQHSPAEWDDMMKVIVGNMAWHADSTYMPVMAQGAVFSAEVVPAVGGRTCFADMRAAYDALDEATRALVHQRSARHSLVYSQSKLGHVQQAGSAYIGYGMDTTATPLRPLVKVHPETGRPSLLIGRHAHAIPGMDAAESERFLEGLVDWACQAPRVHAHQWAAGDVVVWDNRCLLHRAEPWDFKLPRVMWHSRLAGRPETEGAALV
Experimental: Enzyme activity was measured by colorimetric detection of the product phenol using a protocol modified from that of Fukumori and Hausinger (1993) (J. Biol. Chem. 268: 24311-24317) to enable deployment in a 96-well microplate format. The colorimetric assay has been described for use in measuring the activity of dioxygenases cleaving 2,4-D and dichlorprop to release the product 2,4-dichlorophenol. The color yield from several phenols was compared to that of 2,4-dichlorophenol using the detection method previously described to ascertain which phenol products could be readily detected. […] Pyridinols derived from fluroxypyr and triclopyr produced no significant color. The color yield of 2,4-dichlorophenol was linear and proportional to the concentration of phenol in the assay up to ˜500 μM.
Assays were initiated by addition of the aryloxyalkanoate substrate, enzyme or α-ketoglutarate at time zero. After 5 minutes of incubation at 25° C., the reaction was terminated by addition of 30 μl of a 1:1:1 mix of 50 mM Na EDTA; pH 10 buffer (3.09 g boric acid+3.73 g KCl+44 ml 1 N KOH) and 0.2% 4-aminoantipyrine. Then 10 μl 0.8% potassium ferricyanide was added and after 5 or 10 min, the absorbance at 510 nm was recorded in a spectrophotometric microplate reader. Blanks contained all reagents except for enzyme to account for the occasional slight contamination of some of the substrates by small amounts of phenols.
The results are shown in FIG. 3, which illustrates activity of AAD-12 (v2) on 2,4-D and enantiomers of dichlorprop. 4.4 μg AAD-12 (v2) was incubated with 0.5 mM substrate (1 mM for (R,S)-dichlorprop) and the reaction initiated by addition of α-ketoglutarate. After 5 minutes, the reaction was quenched, and the absorbance at 510 nm determined after addition of colorimetric detection reagents. The background value without enzyme was subtracted.

[2] = test system: Segregating T2 AAD-12 (v1) plants (pDAB724.01.1.20); assay: Foliar-applied auxinic herbicides on T2 Arabidopsis; assay type: in vivo, Arabidopsis thaliana; settings: Inactive DCP metabolite
Experimental: (§1) The ability of AAD-12 (v1) to provide resistance to other aryloxyalkanoate auxin herbicides in transgenic Arabidopsis was determined by foliar application of various substrates. T2 generation Arabidopsis seed was stratified, and sown into selection trays much like that of Arabidopsis (Example 6.4). A transformed-control line containing PAT and the insect resistance gene Cry1F was planted in a similar manner. Seedlings were transferred to individual 3-inch pots in the greenhouse. All plants were sprayed with the use of a track sprayer set at 187 L/ha. The plants were sprayed with a range of pyridyloxyacetate herbicides: 280-2240 g ae/ha triclopyr (Garlon 3A, Dow AgroSciences) and 280-2240 g ae/ha fluroxypyr (Starane, Dow AgroSciences); and the 2,4-D metabolite resulting from AAD-12 activity, 2,4-dichlorophenol (DCP, Sigma) (at a molar equivalent to 280-2240 g ac/ha of 2,4-D, technical grade DCP was used). All applications were formulated in water. Each treatment was replicated 3-4 times. Plants were evaluated at 3 and 14 days after treatment.

[3] = test system: Pat/Cry1f-Control Arabidopsis; assay: Foliar-applied auxinic herbicides on transformed control Arabidopsis; assay type: in vivo, Arabidopsis thaliana; settings: for Ave % Injury 14DAT: Inactive DCP metabolite
Experimental: as §1

AAD-12 (v2) [4] = biological target: T1, AAD-12 (v2); assay: Chloropyridinol detection assay (absorbance at 325 nm); assay type: biochemical; settings: 6.8 μg AAD-12 (v2), 1 mM substrate; for Rate (mAU/min): 325 nm, background rate 1.4 mAU/min subtracted
Description: AAD-12 action on potential substrates such as the herbicide triclopyr containing a substituted pyridine (rather than benzene rings) will release a pyridinol on cleavage of the aryloxyalkanoate bond. Pyridinols were not detected using the aminoantipyrine/ferricyanide phenol detection described in the preceding section. […] This was used to create a continuous microplate-based spectrophotometric assay.
All five pyridyloxyalkanoates were cleaved to release pyridinols by AAD-12 (v2). The rates for the oxypropionate substrates 116844 and 91767 were somewhat faster than those for the corresponding acetates (triclopyr and 93833 respectively) indicating a preference of AAD-12 (v2) for oxypropionate over oxyacetate side chains.

[5] = test system: AAD-12 (v1) (pDAS1580) T2 tobacco plants; assay: Auxinic herbicide cross tolerance of stacked tobacco, AAD-12 T2; assay type: in vivo, Nicotiana tabacum; settings: 280 g ae/ha
Experimental: (§2) Homozygous AAD-12 (v1) (pDAS1580) and AAD-1 (v3) (pDAB721) plants (see PCT/US2005/014737 for the latter) were both reciprocally crossed and F1 seed was collected. The F1 seed from two reciprocal crosses of each gene were stratified and treated 4 reps of each cross were treated under the same spray regimen as used for the other testing with one of the following treatments: 70, 140, 280 g ac/ha fluroxypyr (selective for the AAD-12 (v1) gene); 280, 560, 1120 g ae/ha R-dichloroprop (selective for the AAD-1 (v3) gene); or 560, 1120, 2240 g ae/ha 2,4-D DMA (to confirm 2,4-D tolerance). Homozygous T2 plants of each gene were also planted for use as controls. Plants were graded at 3 and 14 DAT.

[6] = test system: AAD-1 (v3) (pDAB721) T2 tobacco plants; assay: Auxinic herbicide cross tolerance of stacked tobacco, AAD-1 T2; assay type: in vivo, Nicotiana tabacum; settings: 280 g ae/ha
Experimental: as §2

[7] = test system: AAD-12 x AAD-1 F1 cross tobacco; assay: Auxinic herbicide cross tolerance of stacked tobacco, F1 cross; assay type: in vivo, Nicotiana tabacum; settings: AAD-12 (v1) x AAD (v3) F1; 280 g ae/ha
Experimental: as §2

wildtype tobacco = assay: Auxinic herbicide cross tolerance of stacked tobacco, wildtype; assay type: in vivo, Nicotiana tabacum; settings: KY160 wildtype control; 280 g ae/ha
Experimental: as §2

[8] = test system: AAD-12 v1 gene + EPSPS + HptII (pDAB3759) T1 Arabidopsis; assay: Glyphosate postemergence dose response, AAD-12 + EPSPS stack; assay type: in vivo, Arabidopsis thaliana; settings: 14 DAT
Experimental: (§3) T1 Arabidopsis seed was produced, as previously described, containing the pDAB3759 plasmid (AAD-12 (v1)+EPSPS) which encodes a putative glyphosate resistance trait. T1 transformants were selected using AAD-12 (v1) as the selectable marker as described in example 7.6. T1 plants (individually transformed events) were recovered from the first selection attempt and transferred to three-inch pots in the greenhouse as previously described. Three different control Arabidopsis lines were also tested: wildtype Columbia-0, AAD-12 (v1)+PAT T4 homozygous lines (pDAB724-transformed), and PAT+Cry1F homozygous line (transformed control). The pDAB3759 and pDAB724 transformed plants were pre-selected at the seedling stage for 2,4-D tolerance. Four days after transplanting, plants were evenly divided for foliar treatment by track sprayer as previously described with 0, 26.25, 105, 420, or 1680 g ae/ha glyphosate (Glyphomax Plus, Dow AgroSciences) in water. All treatments were replicated 5 to 20 times. Plants were evaluated 7 and 14 days after treatment.

PAT/Cry1F Arabidopsis = assay: Glyphosate postemergence dose response, PAT/Cry1F control; assay type: in vivo, Arabidopsis thaliana; settings: 14 DAT
Experimental: as §3

[9] = test system: Wildtype (Col-0) Arabidopsis; assay: Glyphosate postemergence dose response, wildtype; assay type: in vivo, Arabidopsis thaliana; settings: 14 DAT
Experimental: as §3

[10] = test system: pDAB724 T4 (PAT + AAD-12) Arabidopsis; assay: Glyphosate postemergence dose response, pDAB724 T4; assay type: in vivo, Arabidopsis thaliana; settings: 14 DAT
Experimental: as §3

[11] = 280 g ae/ha (molar equivalent of 2,4-D) foliar
[12] = 560 g ae/ha (molar equivalent of 2,4-D) foliar
[13] = 1120 g ae/ha (molar equivalent of 2,4-D) foliar
[14] = 2240 g ae/ha (molar equivalent of 2,4-D) foliar
[15] = 26.25 g ae/ha glyphosate postemergence
[16] = 105 g ae/ha glyphosate postemergence
[17] = 420 g ae/ha glyphosate postemergence
[18] = 1680 g ae/ha glyphosate postemergence

## CC(Oc1ccc(Cl)cc1Cl)C(=O)O (racemic) [(R,S)-dichlorprop]
AAD-12 (v2) [1]; 1 mM substrate
  activity of AAD-12 (v2) on substrate (absorbance at 510 nm, FIG. 3): excellent activity
AAD-12 (v2) [1]; Phenol detection
  Substrate inhibition at 2 mM: 55%
  kcat, min^−1 (±SE): 63.4 (±0.5) min^−1
AAD-12 (v2) [1]; Phenol detection, for (R,S)-dichlorprop calculated assuming 50% of the racemic mixture was available as a substrate, read-out: Km, μM (±SE)
  Km: 122 µM

## Oc1ccc(Cl)cc1Cl [2,4-DCP, 2,4-dichlorophenol]
[2]; [11]
  Ave % Injury 14DAT: 0%
[2]; [12]
  Ave % Injury 14DAT: 0%
[2]; [13]
  Ave % Injury 14DAT: 0%
[2]; [14]
  Ave % Injury 14DAT: 0%
[3]; [11]
  Ave % Injury 14DAT: 0%
[3]; [12]
  Ave % Injury 14DAT: 0%
[3]; [13]
  Ave % Injury 14DAT: 0%
[3]; [14]
  Ave % Injury 14DAT: 0%
[3]; molar equivalent to 280-2240 g ae/ha of 2,4-D
  effect on plants after foliar application: no effect

## C[C@H](Oc1ccc(Cl)cc1Cl)C(=O)O [(S)-dichlorprop]
AAD-12 (v2) [1]; 0.5 mM substrate
  activity of AAD-12 (v2) on substrate (absorbance at 510 nm, FIG. 3): excellent activity

## CC(Oc1ncc(Cl)cc1Cl)C(=O)O (stereo not drawn) [compound 66357]
AAD-12 (v2) [4]
  Rate relative to triclopyr: 2.3
  Rate (mAU/min): 225 mAU/min

## CC(Oc1nc(F)c(Cl)cc1Cl)C(=O)O (stereo not drawn) [compound 91767]
AAD-12 (v2) [4]
  Rate relative to triclopyr: 0.8
  Rate (mAU/min): 190 mAU/min

## O=C(O)COc1nc(F)c(Cl)cc1Cl [compound 93833]
AAD-12 (v2) [4]
  Rate relative to triclopyr: 0.5
  Rate (mAU/min): 118 mAU/min

## CC(Oc1nc(Cl)c(Cl)cc1Cl)C(=O)O (stereo not drawn) [compound 116844]
AAD-12 (v2) [4]
  Rate relative to triclopyr: 1.4
  Rate (mAU/min): 257 mAU/min

## Nc1c(Cl)c(F)nc(OCC(=O)O)c1Cl [fluroxypy]
[5]
  Average % injury 14 DAT: 3%
[6]
  Average % injury 14 DAT: 75%
[7]
  Average % injury 14 DAT: 3%
Wildtype tobacco
  Average % injury 14 DAT: 75%

## O=C(O)CNCP(=O)(O)O [glyphosate]
[8]; [15]
  % Injury 20-40% (number of individuals): 2
  % Injury <20% (number of individuals): 13
  % Injury >40% (number of individuals): 1
  % Injury Ave: 11%
[8]; [16]
  % Injury 20-40% (number of individuals): 1
  % Injury <20% (number of individuals): 10
  % Injury >40% (number of individuals): 5
  % Injury Ave: 34%
[8]; [17]
  % Injury 20-40% (number of individuals): 6
  % Injury <20% (number of individuals): 5
  % Injury >40% (number of individuals): 5
  % Injury Ave: 44%
[8]; [18]
  % Injury 20-40% (number of individuals): 0
  % Injury <20% (number of individuals): 0
  % Injury >40% (number of individuals): 16
  % Injury Ave: 85%
PAT/Cry1F Arabidopsis; [15]
  % Injury 20-40% (number of individuals): 0
  % Injury <20% (number of individuals): 0
  % Injury >40% (number of individuals): 5
  % Injury Ave: 67%
PAT/Cry1F Arabidopsis; [16]
  % Injury 20-40% (number of individuals): 0
  % Injury <20% (number of individuals): 0
  % Injury >40% (number of individuals): 5
  % Injury Ave: 100%
PAT/Cry1F Arabidopsis; [17]
  % Injury 20-40% (number of individuals): 0
  % Injury <20% (number of individuals): 0
  % Injury >40% (number of individuals): 5
  % Injury Ave: 100%
PAT/Cry1F Arabidopsis; [18]
  % Injury 20-40% (number of individuals): 0
  % Injury <20% (number of individuals): 0
  % Injury >40% (number of individuals): 5
  % Injury Ave: 100%
[9]; [15]
  % Injury 20-40% (number of individuals): 0
  % Injury <20% (number of individuals): 0
  % Injury >40% (number of individuals): 5
  % Injury Ave: 75%
[9]; [16]
  % Injury 20-40% (number of individuals): 0
  % Injury <20% (number of individuals): 0
  % Injury >40% (number of individuals): 5
  % Injury Ave: 100%
[9]; [17]
  % Injury 20-40% (number of individuals): 0
  % Injury <20% (number of individuals): 0
  % Injury >40% (number of individuals): 5
  % Injury Ave: 100%
[9]; [18]
  % Injury 20-40% (number of individuals): 0
  % Injury <20% (number of individuals): 0
  % Injury >40% (number of individuals): 5
  % Injury Ave: 100%
[10]; [15]
  % Injury 20-40% (number of individuals): 0
  % Injury <20% (number of individuals): 0
  % Injury >40% (number of individuals): 5
  % Injury Ave: 66%
[10]; [16]
  % Injury 20-40% (number of individuals): 0
  % Injury <20% (number of individuals): 0
  % Injury >40% (number of individuals): 5
  % Injury Ave: 100%
[10]; [17]
  % Injury 20-40% (number of individuals): 0
  % Injury <20% (number of individuals): 0
  % Injury >40% (number of individuals): 5
  % Injury Ave: 100%
[10]; [18]
  % Injury 20-40% (number of individuals): 0
  % Injury <20% (number of individuals): 0
  % Injury >40% (number of individuals): 5
  % Injury Ave: 100%
